Source: US20200031811A1, “SUBSTITUTED MONO- AND POLYAZANAPHTHALENE DERIVATIVES AND THEIR USE” (Basilea Pharmaceutica International AG, priority 2015, published 2020)

What was measured:
MNK1 = molecular target: T1, MNK1 (Homo sapiens, UniProt Q9BUB5); assay: MNK inhibition assay (Z-Lyte kinase assay, Ser/Thr 7 peptide); assay type: biochemical; settings: recombinant GST-MNK1, 3 hours at 31° C.
T1 construct: purchased Life Technologies or Carna Biosciences PV6023 or 02-145; host or cells: baculovirus infected insect cells
Outline: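 Recombinant GST-MNK1 from baculovirus-infected insect cells, Z-Lyte Ser/Thr 7 peptide, enzyme set for ~30% phosphorylation in buffer-only wells; 3 hours at 31° C. Compounds at 50–10000 nM (potent ones down to 0.5 nM), at least duplicate. IC50 from % substrate phosphorylation versus buffer-only wells, fluorescence read-out.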

[1] = system: human pancreatic cancer cell line MiaPaCa2 (ATCC CRL-1420); assay: Cell growth assay (CellTiterGlo, 72 hours); assay type: cell-based; settings: for IC50: MIA PaCa-2, MiaPaCa2 cells, 72 hours, read-out: IC50 MiaPaCa
Outline: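 MiaPaCa2 cells (10^3/well) seeded in supplemented DMEM overnight, then exposed in quadruplicate to compound at 100 down to 0.1 μM for 72 h at 37° C. Growth read by CellTiterGlo luminescence, medium-only background subtracted, normalised to untreated cells; IC50 = concentration reducing growth to 50%.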

T1 sequence (Q9BUB5 whole entry): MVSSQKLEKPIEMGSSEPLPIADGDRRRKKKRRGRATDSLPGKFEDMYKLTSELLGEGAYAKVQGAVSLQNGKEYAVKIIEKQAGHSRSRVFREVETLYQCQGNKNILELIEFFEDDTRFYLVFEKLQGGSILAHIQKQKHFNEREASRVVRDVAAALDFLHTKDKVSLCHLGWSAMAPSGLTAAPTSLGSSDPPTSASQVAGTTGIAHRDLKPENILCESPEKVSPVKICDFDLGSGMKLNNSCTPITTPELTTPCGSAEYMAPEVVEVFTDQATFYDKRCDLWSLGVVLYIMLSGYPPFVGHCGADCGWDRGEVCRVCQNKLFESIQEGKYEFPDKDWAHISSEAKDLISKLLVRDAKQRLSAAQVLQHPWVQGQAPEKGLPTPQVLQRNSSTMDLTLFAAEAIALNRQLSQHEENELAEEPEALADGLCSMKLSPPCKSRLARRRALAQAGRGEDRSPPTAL

With `CO[C@H]1CN(Cc2ccc3cncc(-c4cc5ccccc5o4)c3c2)CC[C@H]1N` [Example 270, (3S,4R/3R,4S)-1-[[4-(Benzofuran-2-yl)-6-isoquinolyl]methyl]-3-methoxy-piperidin-4-amine] the IC50 (MNK1) was 934 nM and the IC50 [1] was 13700 nM.
Compound `CO[C@@H]1CN(Cc2ccc3cncc(-c4cc5ccccc5o4)c3c2)CC[C@H]1N` [Example 271] has an IC50 (MNK1) of 288 nM and an IC50 [1] of 4290 nM.
Compound `c1ccc2oc(-c3cncc4ccc(CNc5ccnc6[nH]ccc56)cc34)cc2c1` [Example 272, N-[[4-(Benzofuran-2-yl)-6-isoquinolyl]methyl]-1H-pyrrolo[2,3-b]pyridin-4-amine] has an IC50 (MNK1) of 5.4 nM and an IC50 [1] of 7250 nM.
With `NC1CCN(Cc2ccc3cncc(-c4cc5cccnc5o4)c3c2)CC1` [Example 273, 1-[(4-Furo{2,3-b}pyridin-2-yl-6-isoquinolyl)methyl]piperidin-4-amine] the IC50 (MNK1) was 767 nM and the IC50 [1] was 30400 nM.
`NC1CCN(Cc2ccc3cncc(-c4cc5ccncc5o4)c3c2)CC1` [Example 274] gave an IC50 (MNK1) of 624 nM and an IC50 [1] of 3980 nM.
In the case of `NC1CCN(Cc2ccc3cncc(-c4cc5cnccc5o4)c3c2)CC1` [Example 275], the IC50 (MNK1) is reported as 175 nM and the IC50 [1] is reported as 5070 nM.
For `NC1CCN(Cc2ccc3cncc(-c4cc5ncccc5o4)c3c2)CC1` [Example 276], the IC50 (MNK1) was 161 nM and the IC50 [1] was 15500 nM.
For `c1ccc2oc(C3CNNc4ccc(CNc5ccncc5)cc43)cc2c1` (stereo not drawn) [Example 277, N-[[4-(Benzofuran-2-yl)-1,2,3,4-tetrahydrocinnolin-6-yl]methyl]pyridin-4-amine], the IC50 (MNK1) was 131 nM and the IC50 [1] was 5760 nM.
`Nc1cc(NCc2ccc3nncc(-c4cc5ccccc5o4)c3c2)ccn1` [Example 278, N4-[[4-(Benzofuran-2-yl)cinnolin-6-yl]methyl]pyridine-2,4-diamine] showed an IC50 (MNK1) of 43 nM and an IC50 [1] of 3570 nM.
Compound `COc1c(CN2CCC(N)CC2)cc2c(-c3cc4ccccc4o3)cncc2c1OC` [Example 279, 1-[[4-(Benzofuran-2-yl)-7,8-dimethoxy-6-isoquinolyl]methyl]piperidin-4-amine] has an IC50 (MNK1) of 116 nM and an IC50 [1] of 5630 nM.
`NC1CCN(Cc2cc3c(-c4cc5ccccc5o4)cncc3c(Cl)c2Cl)CC1` [Example 280, 1-[[4-(Benzofuran-2-yl)-7,8-dichloro-6-isoquinolyl]methyl]piperidin-4-amine] was tested, and the IC50 (MNK1) was 536 nM and the IC50 [1] was 5660 nM.
Work on `CCOc1cc(CN2CCC(N)CC2)cc2c(-c3cc4ccccc4o3)cncc12` [Example 281, 1-[[4-(Benzofuran-2-yl)-8-ethoxy-6-isoquinolyl]methyl]piperidin-4-amine] yielded an IC50 (MNK1) of 297 nM and an IC50 [1] of 2810 nM.
Compound `COc1cc2cncc(-c3cc4ccccc4o3)c2cc1CN1CCC(N)CC1` [Example 282, 1-[[4-(Benzofuran-2-yl)-7-methoxy-6-isoquinolyl]methyl]piperidin-4-amine] has an IC50 (MNK1) of 152 nM and an IC50 [1] of 4630 nM.
`CC(C)Oc1cc(CN2CCC(N)CC2)cc2c(-c3cc4ccccc4o3)cncc12` [Example 283, 1-[[4-(benzofuran-2-yl)-8-isopropoxy-6-isoquinolyl]methyl]piperidin-4-amine] showed an IC50 (MNK1) of 750 nM and an IC50 [1] of 2550 nM.
In the case of `Nc1ncc(-c2ccc(Cl)cc2)c2cc(CN3CCC(N)CC3)cc(Cl)c12` [Example 284], the IC50 (MNK1) is reported as 160 nM and the IC50 [1] is reported as 4230 nM.
Compound `Nc1ncc(-c2ccc(F)c(F)c2)c2cc(CN3CCC(N)CC3)cc(Cl)c12` [Example 285] has an IC50 (MNK1) of 150 nM and an IC50 [1] of 6770 nM.
For `Nc1ncc(-c2ccco2)c2cc(CN3CCC(N)CC3)cc(Cl)c12` [Example 286], the IC50 (MNK1) was 27 nM and the IC50 [1] was 1640 nM.
For `Nc1ncc(-c2cccs2)c2cc(CN3CCC(N)CC3)cc(Cl)c12` [Example 287], the IC50 (MNK1) was 142 nM and the IC50 [1] was 4740 nM.
`COc1cc(CN2CCC(N)CC2)cc2c(-c3ccc(Cl)cc3)cncc12` [Example 288] gave an IC50 (MNK1) of 241 nM and an IC50 [1] of 4610 nM.
`Nc1ncc(-c2ccco2)c2cc(CN3CCC(N)CC3)ccc12` [Example 289] gave an IC50 (MNK1) of 418 nM and an IC50 [1] of 10300 nM.
In the case of `Nc1ncc(-c2cccs2)c2cc(CN3CCC(N)CC3)ccc12` [Example 290], the IC50 (MNK1) is reported as 183 nM and the IC50 [1] is reported as 5210 nM.
Compound `N[C@@H]1CCC[C@@H](Nc2ccc3cncc(-c4cc5ccccc5o4)c3c2)C1` [Example 291] has an IC50 (MNK1) of 638 nM and an IC50 [1] of 4750 nM.
`N[C@@H]1CCC[C@H](Nc2ccc3cncc(-c4cc5ccccc5o4)c3c2)C1` [Example 292] was tested, and the IC50 (MNK1) was 161 nM and the IC50 [1] was 5090 nM.
`NC1CCCN(Cc2ccc3cncc(-c4cc5ccccc5o4)c3c2)C1` (stereo not drawn) [Example 293] was tested, and the IC50 (MNK1) was 2080 nM and the IC50 [1] was 14400 nM.
`c1ccc2oc(-c3cncc4ccc(CN5CCCCC5)cc34)cc2c1` [Example 294] was tested, and the IC50 (MNK1) was 1520 nM and the IC50 [1] was 35300 nM.
In the case of `COc1cc(CN2CCC(N)CC2)cc2c(-c3ccc(Cl)cc3)cnc(N)c12` [Example 295, 6-[(4-Amino-1-piperidyl)methyl]-4-(4-chlorophenyl)-8-methoxy-isoquinolin-1-amine], the IC50 (MNK1) is reported as 300 nM and the IC50 [1] is reported as 1680 nM.
With `COc1cc(CN2CCC(N)CC2)cc2c(-c3ccc(F)c(F)c3)cnc(N)c12` [Example 296] the IC50 (MNK1) was 453 nM and the IC50 [1] was 5340 nM.
Compound `COc1cc(CN2CCC(N)CC2)cc2c(-c3ccco3)cnc(N)c12` [Example 297] has an IC50 (MNK1) of 290 nM and an IC50 [1] of 1210 nM.
Compound `COc1cc(CN2CCC(N)CC2)cc2c(-c3cccs3)cnc(N)c12` [Example 298] has an IC50 (MNK1) of 282 nM and an IC50 [1] of 3580 nM.
In the case of `NC1CCN(Cc2ccc3cncc(-c4ccccc4)c3n2)CC1` [Example 299, 1-[(8-Phenyl-1,6-naphthyridin-2-yl)methyl]piperidin-4-amine], the IC50 (MNK1) is reported as 237 nM and the inhibition at 100 µM ([1]; MIA PaCa-2, at 100 μM, read-out: Inhibition of MiaPaCa growth at indicated concentration) is reported as 85%.
`NC1CCN(Cc2ccc3cncc(-c4cc5ccccc5o4)c3n2)CC1` [Example 300, 1-[[8-(Benzofuran-2-yl)-1,6-naphthyridin-2-yl]methyl]piperidin-4-amine] showed an IC50 (MNK1) of 89 nM and an IC50 [1] of 8360 nM.
Work on `c1ccc2oc(-c3cncc4ccc(CN5CCCCC5)nc34)cc2c1` [Example 301] yielded an IC50 (MNK1) of 1720 nM and an IC50 [1] of 51700 nM.
In the case of `c1ccc2oc(-c3cncc4ccc(CN5CCNCC5)nc34)cc2c1` [Example 302], the IC50 (MNK1) is reported as 142 nM and the IC50 [1] is reported as 18000 nM.
For `N[C@H]1CC[C@H](Nc2ccc3cncc(-c4ccccc4)c3n2)CC1` [Example 303, trans-N4-(8-phenyl-1,6-naphthyridin-2-yl)cyclohexane-1,4-diamine], the IC50 (MNK1) was 31 nM and the IC50 [1] was 9520 nM.
`N[C@H]1CC[C@H](Nc2ccc3cncc(-c4cc5ccccc5o4)c3n2)CC1` [Example 304, trans-N4-[8-(benzofuran-2-yl)-1,6-naphthyridin-2-yl]cyclohexane-1,4-diamine] gave an IC50 (MNK1) of 10 nM and an IC50 [1] of 1960 nM.
With `O=C(c1ccc2cncc(-c3cc4ccccc4o3)c2n1)N1CCNCC1` [Example 305] the IC50 (MNK1) was 1300 nM and the IC50 [1] was 28000 nM.
`N#Cc1cc(CN2CCC(N)CC2)cc2c(-c3cc4ccccc4o3)cncc12` [Example 306, 6-[(4-Amino-1-piperidyl)methyl]-4-(benzofuran-2-yl)isoquinoline-8-carbonitrile] showed an IC50 (MNK1) of 179 nM and an IC50 [1] of 9130 nM.
For `N#Cc1cc(CN2CCC(N)CC2)cc2c(-c3ccccc3)cncc12` [Example 307], the IC50 (MNK1) was 256 nM and the IC50 [1] was 47700 nM.
`N[C@H]1CC[C@H](Nc2cc(Cl)c3cncc(-c4ccccc4)c3c2)CC1` [Example 308] showed an IC50 (MNK1) of 28 nM and an IC50 [1] of 2340 nM.
`N[C@H]1CC[C@H](Oc2ccc3cncc(-c4ccccc4)c3c2)CC1` [Example 309] gave an IC50 (MNK1) of 61 nM and an IC50 [1] of 4430 nM.
Compound `N[C@H]1CC[C@H](Oc2cc(Cl)c3cncc(-c4cc5ccccc5o4)c3c2)CC1` [Example 310] has an IC50 (MNK1) of 135 nM and an IC50 [1] of 2370 nM.
For `N[C@H]1CC[C@H](Oc2cc(Cl)c3cncc(-c4ccccc4)c3c2)CC1` [Example 311], the IC50 (MNK1) was 105 nM and the IC50 [1] was 5760 nM.
Work on `Nc1ncc(-c2ccccc2)c2cc(N[C@H]3CC[C@H](N)CC3)cc(Cl)c12` [Example 312, Trans-N6-(4-aminocyclohexyl)-8-chloro-4-phenyl-isoquinoline-1,6-diamine] yielded an IC50 (MNK1) of 171 nM and an IC50 [1] of 1300 nM.
`Nc1ncc(-c2cc3ccccc3o2)c2cc(N[C@H]3CC[C@H](N)CC3)cc(Cl)c12` [Example 313] showed an IC50 (MNK1) of 282 nM and an IC50 [1] of 2060 nM.
With `COc1cc(O[C@H]2CC[C@H](N)CC2)cc2c(-c3cc4ccccc4o3)cncc12` [Example 314, Trans-4-[[4-(Benzofuran-2-yl)-8-methoxy-6-isoquinolyl]oxy]cyclohexanamine] the IC50 (MNK1) was 302 nM and the IC50 [1] was 4740 nM.
Work on `COc1cc(N[C@H]2CC[C@H](N)CC2)cc2c(-c3ccccc3)cncc12` [Example 315] yielded an IC50 (MNK1) of 87 nM and an IC50 [1] of 2550 nM.
With `COc1cc(O[C@H]2CC[C@H](N)CC2)cc2c(-c3ccccc3)cncc12` [Example 316] the IC50 (MNK1) was 55 nM and the IC50 [1] was 5570 nM.
For `Nc1ncc(-c2ccccc2)c2cc(N[C@H]3CC[C@H](N)CC3)ccc12` [Example 317, trans-N6-(4-aminocyclohexyl)-4-phenyl-isoquinoline-1,6-diamine], the IC50 (MNK1) was 312 nM and the IC50 [1] was 4580 nM.
For `Nc1ncc(-c2cc3ccccc3o2)c2cc(O[C@H]3CC[C@H](N)CC3)cc(Cl)c12` [Example 318, trans-6-(4-Aminocyclohexoxy)-4-(benzofuran-2-yl)-8-chloro-isoquinolin-1-amine], the IC50 (MNK1) was 296 nM and the IC50 [1] was 3800 nM.
`Nc1ncc(-c2ccccc2)c2cc(O[C@H]3CC[C@H](N)CC3)cc(Cl)c12` [Example 319] gave an IC50 (MNK1) of 38 nM and an IC50 [1] of 2850 nM.
`COc1cc(O[C@H]2CC[C@H](N)CC2)cc2c(-c3ccccc3)cnc(N)c12` [Example 321] was tested, and the IC50 (MNK1) was 175 nM and the IC50 [1] was 1310 nM.
